Format in all cases: biochemical
Experiment [1] concerns the target T1, Bovine trypsin (Bos taurus, UniProt P00760).
T1 construct: Bovine trypsin is purchased; purchased Worthington Biochemicals, Freehold, N.J
T1 sequence (P00760 24-246): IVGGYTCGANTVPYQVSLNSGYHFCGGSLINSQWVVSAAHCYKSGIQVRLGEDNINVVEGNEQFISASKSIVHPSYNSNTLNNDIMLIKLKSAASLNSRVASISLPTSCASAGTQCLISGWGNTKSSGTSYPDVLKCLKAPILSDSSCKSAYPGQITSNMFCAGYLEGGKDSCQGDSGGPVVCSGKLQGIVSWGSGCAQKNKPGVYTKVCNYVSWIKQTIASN
The experiment is described as follows: Kass with trypsin, chromogenic substrate. The following applies: substrate N-Benzoyl-Phe-Val-Arg-p-nitroanilide.

In experiment [2] the test system is Human plasma. The experiment is described as follows: Human plasma anticoagulation, thrombin time (TT). The conditions noted are these: concentration required to double the thrombin time, linear extrapolation. The method, boiled down: (§1)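 In plasma from human donors, spiked with a range of compound levels, an automated coagulometer recorded clot formation after thromboplastin (PT), Actin then calcium (APTT) or 10 NIH units/mL thrombin (TT); doubling concentrations were extrapolated linearly.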

Experiment [3] concerns the target Human Thrombin (Homo sapiens, UniProt P00734). The experiment is described as follows: Inhibition of amidase activity of thrombin (Kass).
The target of experiment [4] is T2, t-PA (Homo sapiens, UniProt P00750).
T2 construct: purchased American Diagnostica, Greenwich, Conn
T2 sequence (P00750 36-562): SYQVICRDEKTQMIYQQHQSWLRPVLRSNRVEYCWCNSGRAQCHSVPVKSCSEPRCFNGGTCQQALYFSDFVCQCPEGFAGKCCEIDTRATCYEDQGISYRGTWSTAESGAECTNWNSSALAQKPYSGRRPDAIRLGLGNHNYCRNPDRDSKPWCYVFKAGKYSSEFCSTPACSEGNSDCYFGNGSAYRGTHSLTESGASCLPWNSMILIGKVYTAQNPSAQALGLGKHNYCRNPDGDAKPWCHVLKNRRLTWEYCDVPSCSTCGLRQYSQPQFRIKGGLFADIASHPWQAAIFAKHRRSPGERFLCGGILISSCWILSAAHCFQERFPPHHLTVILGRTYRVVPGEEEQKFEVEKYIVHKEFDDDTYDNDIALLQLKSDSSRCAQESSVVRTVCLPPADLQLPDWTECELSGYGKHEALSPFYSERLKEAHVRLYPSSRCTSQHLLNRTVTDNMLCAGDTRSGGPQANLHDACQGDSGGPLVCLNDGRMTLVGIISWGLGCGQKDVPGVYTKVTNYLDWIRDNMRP
The experiment is described as follows: Kass with t-PA, chromogenic substrate. The conditions noted are these: substrate H-D-Ile-Pro-Arg-p-nitroanilide.

The target of experiment [5] is T3, Human plasmin (Homo sapiens, UniProt P00747).
T3 construct: Human plasmin is purchased; purchased Boehringer Mannheim, Indianapolis, Ind
T3 sequence (P00747 97-810): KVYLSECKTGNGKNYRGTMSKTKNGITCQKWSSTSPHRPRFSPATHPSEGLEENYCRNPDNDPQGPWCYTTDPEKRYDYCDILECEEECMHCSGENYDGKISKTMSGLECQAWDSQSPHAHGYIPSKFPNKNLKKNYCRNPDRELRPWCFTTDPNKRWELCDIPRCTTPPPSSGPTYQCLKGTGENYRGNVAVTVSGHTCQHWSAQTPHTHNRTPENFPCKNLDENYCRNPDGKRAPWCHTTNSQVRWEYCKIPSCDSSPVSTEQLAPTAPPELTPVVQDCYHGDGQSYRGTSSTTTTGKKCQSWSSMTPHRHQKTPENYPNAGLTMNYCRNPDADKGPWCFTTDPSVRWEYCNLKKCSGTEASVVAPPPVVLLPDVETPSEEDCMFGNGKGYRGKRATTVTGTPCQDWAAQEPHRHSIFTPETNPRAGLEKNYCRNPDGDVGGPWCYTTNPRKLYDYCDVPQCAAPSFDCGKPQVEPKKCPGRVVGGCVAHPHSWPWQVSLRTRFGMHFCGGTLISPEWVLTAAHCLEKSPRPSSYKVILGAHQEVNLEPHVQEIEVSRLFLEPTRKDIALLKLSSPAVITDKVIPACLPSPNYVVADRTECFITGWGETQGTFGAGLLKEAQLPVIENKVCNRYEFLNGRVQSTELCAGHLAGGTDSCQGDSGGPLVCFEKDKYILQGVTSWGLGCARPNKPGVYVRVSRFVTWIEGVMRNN
T3 sequence (P00747 97-580 partner limits assumed): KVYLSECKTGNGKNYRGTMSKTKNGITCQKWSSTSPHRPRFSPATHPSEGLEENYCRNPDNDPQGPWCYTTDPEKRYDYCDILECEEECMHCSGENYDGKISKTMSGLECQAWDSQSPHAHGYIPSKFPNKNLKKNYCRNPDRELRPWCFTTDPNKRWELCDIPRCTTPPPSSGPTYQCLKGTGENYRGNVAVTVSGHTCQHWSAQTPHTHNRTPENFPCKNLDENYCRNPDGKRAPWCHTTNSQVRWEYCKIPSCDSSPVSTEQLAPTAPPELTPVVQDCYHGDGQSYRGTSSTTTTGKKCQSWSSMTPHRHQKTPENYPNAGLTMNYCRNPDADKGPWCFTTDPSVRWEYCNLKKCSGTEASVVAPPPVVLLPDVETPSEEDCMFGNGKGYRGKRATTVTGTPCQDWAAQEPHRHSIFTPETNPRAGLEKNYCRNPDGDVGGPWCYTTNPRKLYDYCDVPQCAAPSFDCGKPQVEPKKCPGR
The experiment is described as follows: Kass with plasmin, chromogenic substrate. The conditions noted are these: substrate H-D-Val-Leu-Lys-p-nitroanilide.

Experiment [6] relates to Human plasma. The experiment is described as follows: Human plasma anticoagulation, activated partial thromboplastin time (APTT). The following applies: concentration required to double the APTT, linear extrapolation. The essentials:
as §1

The target of experiment [7] is T4, factor Xa (Homo sapiens, UniProt P00742).
T4 construct: Human factors X, Xa, IXa, XIa, and XIIa are purchased; purchased Enzyme Research Laboratories, South Bend, Ind
T4 sequence (P00742 235-488 limits assumed): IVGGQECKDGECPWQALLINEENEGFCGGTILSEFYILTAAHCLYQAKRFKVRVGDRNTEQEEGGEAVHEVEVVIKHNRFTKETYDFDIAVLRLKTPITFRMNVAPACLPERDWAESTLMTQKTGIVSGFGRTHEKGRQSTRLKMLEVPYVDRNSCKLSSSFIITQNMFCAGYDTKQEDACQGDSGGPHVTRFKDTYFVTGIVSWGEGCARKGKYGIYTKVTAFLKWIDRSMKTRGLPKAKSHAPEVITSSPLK
T4 sequence (P00742 41-179 partner limits assumed): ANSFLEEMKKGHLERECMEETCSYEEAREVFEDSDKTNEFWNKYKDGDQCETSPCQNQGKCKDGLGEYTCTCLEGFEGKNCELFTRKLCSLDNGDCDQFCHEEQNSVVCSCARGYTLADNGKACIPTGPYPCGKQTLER
The experiment is described as follows: Kass with factor Xa, chromogenic substrate. The following applies: substrate N-Benzoyl-Ile-Glu-Gly-Arg-p-nitroanilide.

Experiment [8] has as its system Human plasma. The experiment is described as follows: Human plasma anticoagulation, prothrombin time (PT). The following applies: concentration required to double the PT, linear extrapolation. The method, boiled down: as §1
The mark [9] stands for this setting: mean over a range of concentrations, […].

Structures are written as SMILES. Where a name gives a salt, the structure may show the parent alone. Read-outs that look alike come from different tables or passages of the source.

`CCS(=O)(=O)N[C@H](Cc1ccccc1)C(=O)N1CCC[C@H]1C(=O)NCCc1ccc(NC(=N)N)cc1` [Example 35, EtSO2 -D-Phe-Pro-p-NHCH2 CH2 C6 H4 CNH(NH)NH2.HCl]: in experiment [1], the “Kass Trypsin” value was 0.04 × 10^6 (L/mole). Besides, the “Human Plasma Anticoagulation 2× Clotting time TT” value in experiment [2] is given as 4,500 ng/mL. The “Kass Human Thrombin” value in experiment [3] (setting [9]) was 0.09 × 10^6 (L/mole). Besides, the “Kass t-PA” value in experiment [4] was < 0.001 × 10^6 (L/mole). The “Kass Plasmin” value in experiment [5] is < 0.001 × 10^6 (L/mole). For the same compound, in experiment [6], the “Human Plasma Anticoagulation 2× Clotting time APTT” value was 50,400 ng/mL. Further, in experiment [7], the “Kass Xa” value is reported as < 0.001 × 10^6 (L/mole). For the same compound, in experiment [8], the “Human Plasma Anticoagulation 2× Clotting time PT” value is listed as 78,400 ng/mL.
In the case of `CCS(=O)(=O)N[C@H](Cc1ccccc1)C(=O)N1CCC[C@H]1C(=O)NCc1cccc(NC(=N)N)c1` [Example 36, EtSO2 -D-Phe-Pro-m-NHCH2 C6 H4 NHC(NH)NH2.HCl], the “Kass Trypsin” value in experiment [1] is 0.01 × 10^6 (L/mole). The “Human Plasma Anticoagulation 2× Clotting time TT” value in experiment [2] is 7,700 ng/mL. Besides, the “Kass Human Thrombin” value in experiment [3] (setting [9]) is recorded as 0.06 × 10^6 (L/mole). Moreover, in experiment [4], the “Kass t-PA” value was < 0.001 × 10^6 (L/mole). Moreover, the “Kass Plasmin” value in experiment [5] was < 0.001 × 10^6 (L/mole). Further, the “Human Plasma Anticoagulation 2× Clotting time APTT” value in experiment [6] is on record as > 91,000 ng/mL. In addition, in experiment [7], the “Kass Xa” value was < 0.001 × 10^6 (L/mole). Also, the “Human Plasma Anticoagulation 2× Clotting time PT” value in experiment [8] is reported as > 91,000 ng/mL.
Take `N=C(N)c1ccc(CNC(=O)[C@@H]2CCCN2C(=O)[C@@H](CC2CCCCC2)NCC(=O)O)cc1` [Example 48, HOOCCH2 -D-Cha-Pro-p-NHCH2 C6 H4 C(NH)NH2.HCl]: in experiment [1], the “Kass Trypsin” value is recorded as 250 × 10^6 (L/mole). In experiment [2], the “Human Plasma Anticoagulation 2× Clotting time TT” value was 2 ng/mL. Also, the “Kass Human Thrombin” value in experiment [3] (setting [9]) is listed as 4,100 × 10^6 (L/mole). The “Kass t-PA” value in experiment [4] is recorded as 0.05 × 10^6 (L/mole). Also, the “Kass Plasmin” value in experiment [5] is 0.43 × 10^6 (L/mole). Moreover, the “Human Plasma Anticoagulation 2× Clotting time APTT” value in experiment [6] was 33 ng/mL. Also, the “Kass Xa” value in experiment [7] is 5.5 × 10^6 (L/mole). In addition, the “Human Plasma Anticoagulation 2× Clotting time PT” value in experiment [8] is 59 ng/mL.
Turning to `O=C(O)CN[C@H](CC1CCCCC1)C(=O)N1CCC[C@H]1C(=O)NCC1CCNCC1` [Example 53, HO2 CCH2 -D-Cha-Pro-4-NHCH2 -piperidine.HCl], the “Kass Trypsin” value in experiment [1] was 0.1 × 10^6 (L/mole). In addition, the “Human Plasma Anticoagulation 2× Clotting time TT” value in experiment [2] is 1,400 ng/mL. For the same compound, in experiment [3] (setting [9]), the “Kass Human Thrombin” value is 0.36 × 10^6 (L/mole). The “Kass t-PA” value in experiment [4] was < 0.001 × 10^6 (L/mole). Besides, the “Kass Plasmin” value in experiment [5] is < 0.001 × 10^6 (L/mole). The “Human Plasma Anticoagulation 2× Clotting time APTT” value in experiment [6] is 33,800 ng/mL. Also, in experiment [7], the “Kass Xa” value is < 0.001 × 10^6 (L/mole). For the same compound, the “Human Plasma Anticoagulation 2× Clotting time PT” value in experiment [8] was 34,500 ng/mL.
For `O=C(O)CN[C@H](CC1CCCCC1)C(=O)N1CCC[C@H]1C(=O)NCCC1CCNCC1` [Example 54, HO2 CCH2 -D-Cha-Pro-4-NHCH2 CH2 -piperidine.HCl], the “Kass Trypsin” value in experiment [1] is given as 0.52 × 10^6 (L/mole). The “Human Plasma Anticoagulation 2× Clotting time TT” value in experiment [2] is 140 ng/mL. Moreover, in experiment [3] (setting [9]), the “Kass Human Thrombin” value is 2.8 × 10^6 (L/mole). The “Kass t-PA” value in experiment [4] was < 0.001 × 10^6 (L/mole). In addition, in experiment [5], the “Kass Plasmin” value is recorded as 0.01 × 10^6 (L/mole). Further, the “Human Plasma Anticoagulation 2× Clotting time APTT” value in experiment [6] is listed as 3,300 ng/mL. Moreover, the “Kass Xa” value in experiment [7] was < 0.001 × 10^6 (L/mole). Besides, the “Human Plasma Anticoagulation 2× Clotting time PT” value in experiment [8] was 2,200 ng/mL.
For the compound `O=C(O)CN[C@H](CC1CCCCC1)C(=O)N1CCC[C@H]1C(=O)NCCCC1CCNCC1` [Example 55, HO2 CCH2 -D-Cha-Pro-4-NHCH2 CH2 CH2 -piperidine.HCl], the “Kass Trypsin” value in experiment [1] is given as 0.01 × 10^6 (L/mole). The “Human Plasma Anticoagulation 2× Clotting time TT” value in experiment [2] is listed as 55,800 ng/mL. Further, the “Kass Human Thrombin” value in experiment [3] (setting [9]) is 0.01 × 10^6 (L/mole). Besides, in experiment [4], the “Kass t-PA” value is on record as < 0.001 × 10^6 (L/mole). In addition, the “Kass Plasmin” value in experiment [5] is < 0.001 × 10^6 (L/mole). Besides, the “Human Plasma Anticoagulation 2× Clotting time APTT” value in experiment [6] is > 91,000 ng/mL. The “Kass Xa” value in experiment [7] was < 0.001 × 10^6 (L/mole). In addition, the “Human Plasma Anticoagulation 2× Clotting time PT” value in experiment [8] is > 91,000 ng/mL.
For `N=C(N)N1CCC(CNC(=O)[C@@H]2CCCN2C(=O)[C@@H](CC2CCCCC2)NCC(=O)O)CC1` [Example 56, HO2 CCH2 -D-Cha-Pro-4-NHCH2 -1-amidinopiperidine.HCl], the “Kass Trypsin” value in experiment [1] is listed as 3.6 × 10^6 (L/mole). Further, the “Human Plasma Anticoagulation 2× Clotting time TT” value in experiment [2] was 5 ng/mL. The “Kass Human Thrombin” value in experiment [3] (setting [9]) is reported as 490 × 10^6 (L/mole). The “Kass t-PA” value in experiment [4] is given as < 0.001 × 10^6 (L/mole). In experiment [5], the “Kass Plasmin” value is 0.01 × 10^6 (L/mole). Also, the “Human Plasma Anticoagulation 2× Clotting time APTT” value in experiment [6] was 160 ng/mL. In addition, the “Kass Xa” value in experiment [7] is 0.20 × 10^6 (L/mole). Also, the “Human Plasma Anticoagulation 2× Clotting time PT” value in experiment [8] was 200 ng/mL.
As to `N=C(N)N1CCC(CCNC(=O)[C@@H]2CCCN2C(=O)[C@@H](CC2CCCCC2)NCC(=O)O)CC1` [Example 57, HO2 CCH2 -D-Cha-Pro-4-NHCH2 CH2 -1-amidinopiperidine.HCl], the “Kass Trypsin” value in experiment [1] was 0.24 × 10^6 (L/mole). Further, the “Human Plasma Anticoagulation 2× Clotting time TT” value in experiment [2] is 14 ng/mL. In addition, the “Kass Human Thrombin” value in experiment [3] was determined as 39. The “Kass t-PA” value in experiment [4] was < 0.001 × 10^6 (L/mole). Besides, the “Kass Plasmin” value in experiment [5] is recorded as 0.01 × 10^6 (L/mole). In experiment [6], the “Human Plasma Anticoagulation 2× Clotting time APTT” value is given as 360 ng/mL. For the same compound, the “Kass Xa” value in experiment [7] is listed as 0.01 × 10^6 (L/mole). In experiment [8], the “Human Plasma Anticoagulation 2× Clotting time PT” value is 340 ng/mL.
As to `O=C(O)CN[C@H](CC1CCCCC1)C(=O)N1CCC[C@H]1C(=O)NCC1=CCNCC1` [Example 58, HO2 CCH2 -D-Cha-Pro-4-NHCH2 -3,4-dehydro-piperidine.HCl], in experiment [1], the “Kass Trypsin” value is given as 0.40 × 10^6 (L/mole). Further, the “Human Plasma Anticoagulation 2× Clotting time TT” value in experiment [2] is listed as 710 ng/mL. For the same compound, in experiment [3] (setting [9]), the “Kass Human Thrombin” value is listed as 0.60 × 10^6 (L/mole). In experiment [4], the “Kass t-PA” value was < 0.001 × 10^6 (L/mole). In experiment [5], the “Kass Plasmin” value is < 0.001 × 10^6 (L/mole). The “Human Plasma Anticoagulation 2× Clotting time APTT” value in experiment [6] is 14,300 ng/mL. Also, in experiment [7], the “Kass Xa” value is < 0.001 × 10^6 (L/mole). The “Human Plasma Anticoagulation 2× Clotting time PT” value in experiment [8] is 11,400 ng/mL.
Regarding `O=C(O)CN[C@H](CC1CCCCC1)C(=O)N1CCC[C@H]1C(=O)NCCC1=CCNCC1` [Example 59, HO2 CCH2 -D-Cha-Pro-4-NHCH2 CH2 -3,4-dehydro-piperidine.HCl], in experiment [1], the “Kass Trypsin” value is reported as 0.21 × 10^6 (L/mole). Also, the “Human Plasma Anticoagulation 2× Clotting time TT” value in experiment [2] is 420 ng/mL. Further, the “Kass Human Thrombin” value in experiment [3] (setting [9]) is 1.10 × 10^6 (L/mole). Moreover, the “Kass t-PA” value in experiment [4] is < 0.001 × 10^6 (L/mole). Moreover, the “Kass Plasmin” value in experiment [5] is listed as < 0.001 × 10^6 (L/mole). In addition, the “Human Plasma Anticoagulation 2× Clotting time APTT” value in experiment [6] was 5,500 ng/mL. For the same compound, the “Kass Xa” value in experiment [7] is on record as < 0.001 × 10^6 (L/mole). The “Human Plasma Anticoagulation 2× Clotting time PT” value in experiment [8] is 7,000 ng/mL.

(Values after patent US5707966A, “Antithrombotic agents” (Eli Lilly and Company, priority 1995, dated 1998).)
